Assay results as given in ChEMBL document CHEMBL1201862, “PubChem BioAssay data set” (2004).
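Test compounds were applied to cells in 96-well plates for 48 hours at 5 doses. GI50: concentration for 50% inhibition of growth.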 Active and inactive are the calls of the source. No stated cut-off is given here; in the data, active = GI50 up to about 1.1 µM and inactive = higher.

How the values were obtained:
Assay in all cases: DTP human tumour cell line panel, 48 h
HOP-62 = system: HOP-62
UACC-257 = system: UACC-257
RXF 393 = system: RXF 393
HT-29 = system: HT-29
SK-MEL-28 = system: SK-MEL-28
ACHN = system: ACHN
Malme-3M = system: Malme-3M
A549 = system: A549
OVCAR-3 = system: OVCAR-3
SNB-19 = system: SNB-19
SW-620 = system: SW-620
HL-60 = system: HL-60
SF-268 = system: SF-268
UACC-62 = system: UACC-62
SR = system: SR
SF-295 = system: SF-295
SK-MEL-2 = system: SK-MEL-2
A498 = system: A498

Measured: GI50

Cc1c(C(=O)Nc2ccc(Cl)cc2)nc(N)nc1-c1cccc(Cl)c1
inactive: HOP-62 > 100 µM | UACC-257 > 100 µM | RXF 393 39.5 µM | HT-29 36.7 µM | SK-MEL-28 > 100 µM | ACHN > 100 µM | Malme-3M > 100 µM | A549 74.5 µM | OVCAR-3 > 100 µM | SNB-19 > 100 µM | SW-620 62.7 µM | HL-60 39.2 µM | SF-268 > 100 µM | UACC-62 > 100 µM | SR > 100 µM | SF-295 > 100 µM

COC1=CC(=O)C2C(C1=O)[C@@H]1c3ccccc3OC[C@H]21 (stereo partly specified)
inactive: HOP-62 > 100 µM | RXF 393 > 100 µM | HT-29 > 100 µM | SK-MEL-28 > 100 µM | SK-MEL-2 > 100 µM | A498 > 100 µM | ACHN > 100 µM | Malme-3M > 100 µM | A549 > 100 µM | OVCAR-3 > 100 µM | SNB-19 > 100 µM | SW-620 > 100 µM | HL-60 > 100 µM | SF-268 > 100 µM | SF-295 > 100 µM

CC1C(=O)CCC1C(Sc1ccccc1)(Sc1ccccc1)Sc1ccccc1 (stereo unspecified)
inactive: HOP-62 37.4 µM | UACC-257 31.5 µM | RXF 393 14.2 µM | HT-29 30.3 µM | SK-MEL-28 22.1 µM | SK-MEL-2 34.9 µM | A498 23.2 µM | ACHN 19.9 µM | Malme-3M 37.1 µM | A549 9.27 µM | OVCAR-3 17.6 µM | SNB-19 26.5 µM | SW-620 27 µM | HL-60 5.83 µM | SF-268 10.7 µM | UACC-62 18 µM | SF-295 36.8 µM

CCc1ccccc1NC(=O)C1=C(C)NC(C)=C(C(=O)Nc2ccccc2CC)C1c1ccc2c(c1)OCO2
inactive: HOP-62 17.1 µM | UACC-257 30.9 µM | RXF 393 20 µM | HT-29 31.9 µM | SK-MEL-28 32.6 µM | SK-MEL-2 19.2 µM | A498 25.1 µM | ACHN 22.8 µM | Malme-3M 25.3 µM | A549 29.1 µM | OVCAR-3 22.5 µM | SNB-19 49.3 µM | SW-620 28.9 µM | HL-60 16.9 µM | SF-268 25.2 µM | SF-295 33.3 µM

O=C(CNc1nncs1)NO
inactive: HOP-62 > 100 µM | UACC-257 > 100 µM | RXF 393 > 100 µM | HT-29 84.3 µM | SK-MEL-28 > 100 µM | SK-MEL-2 > 100 µM | A498 > 100 µM | ACHN > 100 µM | Malme-3M > 100 µM | A549 > 100 µM | OVCAR-3 > 100 µM | SNB-19 > 100 µM | SW-620 > 100 µM | HL-60 > 100 µM | SF-268 > 100 µM | UACC-62 > 100 µM | SF-295 > 100 µM
